Test results taken from patent US8202890B2, “Pest control agent” (Meiji Seika Pharma Co., Ltd., priority 2006, dated 2012).

Assays:
[1] = tested on: Aphis gossypii; assay: Pesticidal effect against Aphis gossypii (cucumber leaf disk); type: in vivo; conditions: Aphis gossypii first instar larvae, spread, 3 days, 25° C.
Description: A leaf disk having a diameter of 2.0 cmφ was cut out from a cucumber grown in a pot and was placed in a 5.0 cm-Schale. A test solution, which had been adjusted to a predetermined concentration by the addition of a 50% aqueous acetone solution (0.05% Tween 20 added) was spread over the […] leaf disk. After air dried, ten (10) of larvae of Aphis gossypii at the first instar were released in the Schale. Thereafter, the Schale was lidded and was allowed to stand in a temperature-controlled room (light period 16 hr-dark period 8 hr) (25° C.).
(§1) The death rate of larvae was calculated by the following equation. Death rate (%)={number of dead larvae/(number of survived larvae+number of dead larvae)}×100 The concentrations which gave the death rate of 90% or more are shown in Table 2.

[2] = tested on: Pseudococcus comstocki; assay: Pesticidal effect against Pseudococcus comstocki (Phaseolus vulgaris leaf disk); type: in vivo; conditions: Pseudococcus comstocki first instar larvae, spread, 3 days, 25° C.
Protocol: A leaf disk having a diameter of 2.8 cmφ was cut out from a leaf of Phaseolus vulgaris and was placed on an agar in a plastic cup, into which ten (10) of larvae of Pseudococcus comstocki at the first instar were released. A test solution, which had been adjusted to a predetermined concentration by the addition of a 50% aqueous acetone solution (0.05% Tween 20 added) was spread. After air dried, it was allowed to stand in a temperature-controlled room (light period 16 hr-dark period 8 hr) (25° C.).
as §1

[3] = tested on: Myzus persicae; assay: Pesticidal effect against Myzus persicae (cabbage leaf disk); type: in vivo; conditions: Myzus persicae first instar larvae, spread, 3 days, 25° C.
Description: A leaf disk having a diameter of 2.8 cmφ was cut out from a cabbage grown in a pot and was placed in a 5.0 cm-Schale. Four adult aphids of Myzus persicae were released in the Schale. One day after the release of the adult aphids, the adult aphids were removed. The number of larvae at the first instar born in the leaf disk was adjusted to 10, and a test solution, which had been adjusted to a predetermined concentration by the addition of a 50% aqueous acetone solution (0.05% Tween 20 added) was spread over the cabbage leaf disk. The cabbage leaf disk was then air dried. Thereafter, the Schale was lidded and was allowed to stand in a temperature-controlled room (light period 16 hr-dark period 8 hr) (25° C.).
as §1

[4] = tested on: Plutella xylostella L larvae; conditions: in vivo; cited from earlier work
[5] = tested on: Tenebrio molitor L; conditions: in vivo; cited from earlier work
[6] = tested on: larvae of Helicoverpa zea; conditions: in vivo; cited from earlier work

Compound | Concentration (ppm) for the death rate of 90% or more, Test Example 2 [1] | Concentration (ppm) for the death rate of 90% or more, Test Example 3 [2] | Concentration (ppm) for the death rate of 90% or more, Test Example 1 [3] | insecticidal activity against Plutella xylostella L larvae [4] | insecticidal activity against Tenebrio molitor L [5] | insecticidal activity against larvae of Helicoverpa zea [6]
CC1(COC(=O)C2CC2)C2CC(=O)[C@@]3(C)Oc4cc(-c5cccnc5)oc(=O)c4[C@H](O)C3[C@@]2(C)CC[C@@H]1OC(=O)C1CC1 (stereo partly drawn) [Compound 1] | 0.078 ppm | 0.156 ppm | 0.010 ppm |  |  | 
CC1(COC(=O)C2CC2)C2CC[C@@]3(C)Oc4cc(-c5cccnc5)oc(=O)c4[C@H](O)C3[C@@]2(C)CC[C@@H]1OC(=O)C1CC1 (stereo partly drawn) [Compound 2] | 0.078 ppm | 0.625 ppm | 0.039 ppm |  |  | 
Pyripyropene A |  |  |  | insecticidal activity | insecticidal activity | insecticidal activity
